Results: patent US20090274675A1, “Migraine tonic” (priority 2008, published 2009)

Tests used:
[1] = tested on: women suffering from severe migraine; experiment: Intravenous magnesium in intra-partum and post-partum women with severe migraine; assay type: in vivo, human; settings: intravenous injection
Description: Use of magnesium is useful to control this neuronal excitability, which is one factor that perpetuates migraine. […] In this invention the unit dosage of Magnesium Citrate to be used is 250 to 500 mg. per total formulation dosage.

[2] = tested on: migraine headache; settings: several clinical trials in the U.S and Europe; cited from earlier work

SMILES | effect on severe migraine [1] | improvement in migraine headache [2]
[Mg+2] [magnesium, Magnesium] | dramatic effect | 
Cc1cc2nc3c(=O)[nH]c(=O)nc-3n(C[C@H](O)[C@H](O)[C@H](O)CO)c2cc1C [riboflavin, Riboflavin] |  | statistically significant
